This passage reports Blood glucose value, Insulin and Leptin results from US20220288046A1, “COMBINATION PRODUCT CONTAINING LIMONOID COMPOUND AND THIAZOLIDINEDIONE COMPOUND” (ZHEJIANG YANGSHENGTANG INSTITUTE OF NATURAL MEDICATION CO., …, priority 2019, published 2022).

Holding throughout (type): in vivo
Test [1] concerns STZ mice. The test is described as follows: Blood glucose in mouse pancreatic islet β-cell injury model (STZ ICR mice), limonoid/rosiglitazone. The note with it: single agent 0.02 g/kg per day gavage, two weeks, 1 h after last administration, mean ± SD. The protocol: It should be noted that the conditions for raising the mice were as follows: the temperature was 23±1° C., the humidity was 55±10%, the lights were turned on between 7 am and 7 pm (the lights were turned off at other time), and the mice were allowed to freely take in water and feed. The experimental feed was mouse growth-stable feed (GB M2118), and the daily feeding and management of the animals were under the responsibility of the animal security department, which provided the animals with sufficient diet and fresh drinking water daily.
SPSS 16.0 software was used for statistical analysis. The data were expressed as mean and standard deviation.

The subject of test [2] is db/db mice. The test is described as follows: Blood glucose in mouse type II diabetes model (db/db mice), limonoid/rosiglitazone. To be noted: single agent 0.2 g/kg per day gavage, two weeks, 1 h after last administration, mean ± SD. From the text:
(§1) Effects of limonoid compound, rosiglitazone or combination thereof on blood glucose and insulin in mouse type II diabetes model
(§2) In the present embodiment, the limonoid compound was selected from nomilin, deacetylnomilin, nomilin acid, deacetylnomilin acid glycoside, and rosiglitazone single administration group, nomilin single administration group, deacetylnomilin single administration group, nomilin acid single administered group, deacetylnomilin acid glycoside single administration group, and respective combination thereof with rosiglitazone administration groups were set.
(§3) Conditions for experimental feeding: as type II diabetes model mice, 6-week-old SPF-grade db/db mice were purchased from the Nanjing Model Biology Institute, and subjected to experimental feeding after 7 days of preliminary feeding. […]
(§4) Two weeks later, the blood glucose values were measured by tail trimming method (Johnson's blood glucose meter) 1 h after the last administration, and serum insulin levels were measured with blood collected from orbital cavity by enzyme-linked immunosorbent assay (Elisa), and the average of each group was obtained. […] The data were expressed as mean and standard deviation.

The subject of test [3] is db/db mice. The test can be described thus: Serum insulin (Elisa) in mouse type II diabetes model (db/db mice), limonoid/rosiglitazone. To be noted: single agent 0.2 g/kg per day gavage, two weeks, mean ± SD.
Source text: as §1, §2, §3, §4

In test [4] the test system is db/db mice. The test is described as follows: Blood glucose in mouse type II diabetes model (db/db mice), limonoid/pioglitazone. The note with it: single agent 0.04 g/kg per day gavage, two weeks, 1 h after last administration, mean ± SD. From the text: (§5) Effects of limonoid compound, pioglitazone or combination thereof on blood glucose and leptin in mouse type II diabetes model In the present example, db/db mice (line name BKS.Cg-Dock7m^+/+Lepr^db/Nju) were used to perform hypoglycemic efficacy evaluation test of animals (blood glucose level and leptin). The limonoid compound was selected from obacunone, isoobacunoic acid and obacunone glycoside, and pioglitazone single administration group, obacunone single administration group, isoobacunoic acid single administration group, obacunone glycoside single administered group, and respective combination thereof with pioglitazone administration groups were set. Conditions for experimental feeding: as type II diabetes model mice, 6-week-old SPF-grade db/db mice were purchased from the Nanjing Model Biology Institute, and subjected to experimental feeding after 7 days of preliminary feeding. […] The experimental feed was mouse growth-stable feed (GB […]), and the daily feeding and management of the animals were under the responsibility of the animal security department, which provided the animals with sufficient diet and fresh drinking water daily. […] The data were expressed as mean and standard deviation. The data before and after were analyzed by t-test, and P <0.05 was considered statistically significant.

The subject of test [5] is db/db mice. The test is described as follows: Serum leptin (Elisa) in mouse type II diabetes model (db/db mice), limonoid/pioglitazone. The note with it: single agent 0.04 g/kg per day gavage, two weeks, mean ± SD.
Source text: as §5

The test system of test [6] is STZ mice. The test can be described thus: Blood glucose in mouse pancreatic islet β-cell injury model (STZ ICR mice), limonoid/pioglitazone. To be noted: single agent 0.1 g/kg per day gavage, two weeks, 1 h after last administration, mean ± SD. The source says: Effects of limonoid compound, pioglitazone or combination thereof on blood glucose in mouse pancreatic islet β-cell injury model In this example, a mouse pancreatic islet β-cell injury model was established by modeling ICR mice with streptozotocin (STZ) (Li Nan et al., Protective effect of pine pollen on kidney damage in diabetic nephropathy mice, Science and Technology Review, 2014, 32 (4⁄5): 95-99), and used to complete the evaluation of hypoglycemic effect in animals (this model could simulate pancreatic islet β-cell damage state of type I and type II diabetics). The limonoid compound was selected from the group consisting of […], and […] glycoside, and pioglitazone single administration group, […] single administration group, […] single administration group, […] glycoside singe administration group, and respective combination thereof with pioglitazone administration groups were set. Conditions of experimental feeding: […] The experimental feed was mouse growth-stable feed (GB […]), and the daily feeding and management of the animals were under the responsibility of the animal security department, which provided the animals with sufficient diet and fresh drinking water daily. […] The data were expressed as mean and standard deviation. The data before and after were analyzed by t-test, and P <0.05 was considered statistically significant.

For test [7], the system named is STZ mice. The test can be described thus: Blood glucose in mouse type II diabetes model with pancreatic islet damage and obesity (STZ + high-fat diet ICR mice), limonoid/pioglitazone. To be noted: single agent 0.5 g/kg per day gavage, two weeks, 1 h after last administration, mean ± SD. From the text:
Effects of limonoid compound, pioglitazone or combination thereof on blood glucose in mouse type II diabetes model with pancreatic islet damage and obesity In this example, a mouse model of type II diabetes with pancreatic islet damage and obesity was established by multiple modeling ICR mice with a small dose of streptozotocin (STZ), following with continuous high-fat diets (referring to literature: […] Conditions of experimental feeding: […] The experimental feed was mouse growth-stable feed (GB […]), and the daily feeding and management of the animals were under the responsibility of the animal security department, which provided the animals with sufficient diet and fresh drinking water daily. Experimental grouping: 15 male mice were randomly selected as the normal control group, and the remaining mice were subjected to a high-fat diet (high-fat diet formula: cholesterol 1%, egg yolk powder 10%, lard oil 10%, and basic feed 79%, for establishing an obesity mouse model) for consecutive 4 weeks and intraperitoneal injection of STZ at a dose of 35mg/kg for three consecutive days. […] SPSS 16.0 software was used for statistical analysis. The data were expressed as mean and standard deviation. The data before and after were analyzed by t-test, and P <0.05 was considered statistically significant.

As to `CN(CCOc1ccc(CC2SC(=O)NC2=O)cc1)c1ccccn1` (stereo not shown) [Rosiglitazone, rosiglitazone], the Blood glucose value in the test with STZ mice [1] is listed as 17.9 ± 3.5 mmol/L; in the test with db/db mice [2], 10.0 ± 2.5 mmol/L. In addition, in the test on db/db mice [3], the Insulin was 7.54 ± 1.21 pg/mL.
As to `CCc1ccc(CCOc2ccc(CC3SC(=O)NC3=O)cc2)nc1` (stereo not shown) [Pioglitazone, pioglitazone], the Blood glucose value was 11.5 ± 3.0 mmol/L with db/db mice [4], 12.8 ± 3.1 mmol/L in the test with STZ mice [6] and 9.9 ± 2.1 mmol/L with STZ mice [7]. For the same molecule, in the test with db/db mice [5], the Leptin was found to be 24.55 ± 5.14 pg/mL.
